Entries after “also recorded” stand apart in the source; their conditions may differ. Marks after values point to notes of the source that are not given here.
Experiments:
[1] = Storage stability in solutions and hornbeam bark extracts (UHPLC-DAD); format: physicochemical; conditions: for k / t1/2: storage 23 weeks
Description: For the analysis of the samples from the chemical stability as well as the PAMPA studies, sample concentrations were determined using our previously developed ultrahigh-performance liquid chromatography–diode array detection (UHPLC-DAD) method validated for linearity, precision and accuracy. Briefly, an ACQUITY UPLC H-Class PLUS System hyphenated with a quaternary solvent delivery pump (QSM), an auto-sampler manager (FTN), a column compartment (CM) and a photodiode array (PDA) detector (Waters Corporation) was employed. Stationary phase: Acquity BEH C18 column (100 × 2.1 mm i.d., 1.7 µm; Waters Corporation), column temperature: 30 °C. The mobile phase consisted of 0.3% acetic acid in water (eluent A) and acetonitrile (eluent B). The following gradient elution was applied at a flow rate of 0.3 mL/min: 0 min 12.0% B, 19.0 min 13.5% B, 25.5 min 75.0% B, 26.0 min 100.0% B, 28.0 min 100.0% B, 28.5 min 12.0% B.
We used the following equations to calculate the first-order reaction rate constant (k) and the half-life (t1/2) indicating the time required to reduce the concentration of diarylheptanoids by 50% [29]:ln (ct/c0) = −k × t(1) t1/2 = −ln 0.5 × k^−1(2) where ct is the concentration of the diarylheptanoids at time t, c0 is the initial concentration, k is the reaction rate constant, t is the treatment time.
The chemical stability of the isolated compounds in solutions was examined at a concentration of 50 µg/mL in methanol and water (in the latter case using methanol as co-solvent, final composition: water-methanol 90:10, v/v). Furthermore, the methanol and ethyl acetate extracts of C. betulus bark (concentration 4 mg/mL) were also studied in order to assess the effects of the accompanying substances. The storage stability studies were performed at a neutral pH value. All solutions were filtered through Phenex-RC 15 mm, 0.2 μm syringe filters (Gen-Lab Ltd., Budapest, Hungary). The samples were prepared in triplicate and stored protected from light at 22 ± 2.0 °C, 5 ± 1.5 °C and −15 ± 2.0 °C for 23 weeks. Quantities of the analytes of interest were quantified at weeks 12 and 23 using the abovementioned UHPLC-DAD method (see Section 3.4).
The effects of the temperature and the medium (i.e., solvent and accompanying substances) were analysed through one-way analysis of variance (ANOVA) followed by Tukey’s post hoc HSD test (p < 0.05). To establish the kinetic parameters t1/2 and k, Equations (1) and (2) were applied, respectively.

[2] = system: A2058 (melanoma, derived from metastatic site: lymph node); assay: In vitro antiproliferative activity, Alamar Blue assay; format: cell-based; conditions: Homo sapiens; A2058, 24 h treatment, then three days culture, n = 2; read-out: IC50 ± SD
Description: (§1) For the experiments, the following human cell lines were used: A2058 (melanoma, derived from metastatic site: lymph node), HepG2 (hepatocellular carcinoma), U87 (glioblastoma), HT-29 (colorectal carcinoma) and HL-60 (acute promyelocytic leukaemia). Cell lines were generous gifts from Dr. […] (Department of Experimental Pharmacology, National Institute of Oncology, Budapest, Hungary). […] The cultures were maintained at 37 °C in a humidified atmosphere with 5% CO2. The cells were grown to confluency and then divided into 96-well tissue culture plates (Sarstedt, Nümbrecht, Germany) with an initial cell number of 5000 cells/well. Cells were incubated at 37 °C in a 5% CO2 humidified atmosphere overnight. Before the assay, 50 μL of the supernatant was removed and replaced with a 50 μL serum-free medium (SFM). […] The cells were treated for 24 h with the compounds and negative control cells (no compound control) were treated with SFM only (incubated at 37 °C). […] The percentage of cytostasis was calculated with the following equation: […] Data were evaluated with Excel (version: 365; Microsoft, Redmond, WA, USA) and the curves were defined using Microcal OriginPro (version: 2018; OriginLab, Northampton, MA, USA) software. In each case, two independent experiments were carried out with four parallel measurements and the mean IC50 values together with ±SD were represented. The Excel (version: 365) (Microsoft, Redmond, WA, USA) and Microcal OriginPro (version: 2018) (OriginLab, Northampton, MA, USA) softwares were used for data evaluation.

[3] = system: HL-60 (acute promyelocytic leukaemia); assay: as above; format: cell-based; conditions: Homo sapiens; HL-60, 24 h treatment, then three days culture, n = 2; read-out: IC50 ± SD
Description: as §1

[4] = system: HT-29 (colorectal carcinoma); assay: as above; format: cell-based; conditions: Homo sapiens; HT-29, 24 h treatment, then three days culture, n = 2; read-out: IC50 ± SD
Description: as §1

[5] = system: HepG2 (hepatocellular carcinoma); assay: as above; format: cell-based; conditions: Homo sapiens; HepG2, 24 h treatment, then three days culture, n = 2; read-out: IC50 ± SD
Description: as §1

U87 (glioblastoma) = assay: as above; format: cell-based; conditions: Homo sapiens; U87, 24 h treatment, then three days culture, n = 2; read-out: IC50 ± SD
Description: as §1

[6] = 12 weeks, 5 °C, EE (ethyl acetate extract of bark)
[7] = 12 weeks, 5 °C, EM (methanol extract of bark)
[8] = 12 weeks, 5 °C, SA (aqueous solution)
[9] = 12 weeks, 5 °C, SM (methanol solution)
[10] = 12 weeks, 22 °C, EE (ethyl acetate extract of bark)
[11] = 12 weeks, 22 °C, EM (methanol extract of bark)
[12] = 12 weeks, 22 °C, SA (aqueous solution)
[13] = 12 weeks, 22 °C, SM (methanol solution)
[14] = 12 weeks, −15 °C, EE (ethyl acetate extract of bark)
[15] = 12 weeks, −15 °C, EM (methanol extract of bark)
[16] = 12 weeks, −15 °C, SA (aqueous solution)
[17] = 12 weeks, −15 °C, SM (methanol solution)
[18] = 23 weeks, 5 °C, EE (ethyl acetate extract of bark)
[19] = 23 weeks, 5 °C, EM (methanol extract of bark)
[20] = 23 weeks, 5 °C, SA (aqueous solution)
[21] = 23 weeks, 5 °C, SM (methanol solution)
[22] = 23 weeks, 22 °C, EE (ethyl acetate extract of bark)
[23] = 23 weeks, 22 °C, EM (methanol extract of bark)
[24] = 23 weeks, 22 °C, SA (aqueous solution)
[25] = 23 weeks, 22 °C, SM (methanol solution)
[26] = 23 weeks, −15 °C, EE (ethyl acetate extract of bark)
[27] = 23 weeks, −15 °C, EM (methanol extract of bark)
[28] = 23 weeks, −15 °C, SA (aqueous solution)
[29] = 23 weeks, −15 °C, SM (methanol solution)

concentration as compared to the initial value [1, 6]	concentration as compared to the initial value [1, 7]	concentration as compared to the initial value [1, 8]	concentration as compared to the initial value [1, 9]	concentration as compared to the initial value [1, 10]	concentration as compared to the initial value [1, 11]	concentration as compared to the initial value [1, 12]	concentration as compared to the initial value [1, 13]	concentration as compared to the initial value [1, 14]	concentration as compared to the initial value [1, 15]	concentration as compared to the initial value [1, 16]	concentration as compared to the initial value [1, 17]	concentration as compared to the initial value [1, 18]	concentration as compared to the initial value [1, 19]	concentration as compared to the initial value [1, 20]	concentration as compared to the initial value [1, 21]	concentration as compared to the initial value [1, 22]	concentration as compared to the initial value [1, 23]	concentration as compared to the initial value [1, 25]	Structure (SMILES)	concentration as compared to the initial value [1, 24]	other results
99.5 ± 0.4 ^#a %	99.9 ± 0.8 ^a %	99.9 ± 0.4 ^a %	99.4 ± 0.6 ^a %	100.2 ± 0.7 ^a %	101.1 ± 1.1 ^a %	100.4 ± 1.1 ^a %	99.7 ± 0.4 ^a %	100.1 ± 0.7 ^a %	99.8 ± 0.7 ^a %	99.1 ± 1.3 ^a %	99.1 ± 1.3 ^a %	100.1 ± 0.4 ^a %	99.2 ± 1.2 ^a %	99.9 ± 0.5 ^a %	99.2 ± 0.5 ^a %	99.7 ± 0.5 ^a %	99.7 ± 0.3 ^#a %	99.9 ± 0.6 ^a %	O=C1CCc2ccc(O)c(c2)-c2cc(ccc2O)C[C@H](O)[C@H](O)[C@H]1O [Compound 2, carpinontriol B]	99.8 ± 0.9 ^a %	concentration as compared to the initial value [1, 26]: 99.8 ± 0.4 ^a %; concentration as compared to the initial value [1, 27]: 99.6 ± 0.7 ^a %; concentration as compared to the initial value [1, 28]: 99.1 ± 1.2 ^a %; concentration as compared to the initial value [1, 29]: 99.1 ± 1.2 ^a %; storage stability in methanol and aqueous solutions (in words) ([1]; SM and SA, −15, 5, 22 °C, weeks 12 and 23): stable; also recorded: good stability; IC50 [2]: > 100 µM; IC50 [3]: > 100 µM; IC50 [4]: > 100 µM; IC50 [5]: > 100 µM; IC50 (U87 (glioblastoma)): > 100 µM
100.8 ± 0.5 ^#bcd %	100.2 ± 1.1 ^bcd %	99.3 ± 0.1 ^#bcd %	99.0 ± 0.1 ^#bcd %	101.6 ± 2.2 ^#bc %	102.7 ± 0.9 ^#bc %	96.2 ± 0.1 ^#bcd %	84.5 ± 7.4 ^#a %	103.5 ± 0.2 ^b %	101.6 ± 3.1 ^#bc %	100.1 ± 0.6 ^bcd %	100.4 ± 1.2 ^bcd %	100.9 ± 1.3 ^bcd %	93.8 ± 1.3 ^#de %	99.1 ± 0.1 ^#bcd %	81.9 ± 1.0 ^#a %	95.7 ± 0.5 ^#cd %	95.6 ± 2.4 ^#cd %	67.1 ± 7.5 %	O=C1CCc2ccc(O)c(c2)-c2cc(ccc2O)C[C@@H](O)[C@H](O)C1 [Compound 3, giffonin X]	87.6 ± 0.7 ^#ae %	k ([1]; 5 °C, SA (aqueous solution)): 5.0 × 10^−4 Week^−1; t1/2 ([1]; 5 °C, SA (aqueous solution)): 1386.29 Week; k ([1]; 5 °C, SM (methanol solution)): 7.10 × 10^−3 Week^−1; t1/2 ([1]; 5 °C, SM (methanol solution)): 97.63 Week; k ([1]; 22 °C, SA (aqueous solution)): 5.90 × 10^−3 Week^−1; t1/2 ([1]; 22 °C, SA (aqueous solution)): 117.48 Week; k ([1]; 22 °C, SM (methanol solution)): 1.85 × 10^−2 Week^−1; t1/2 ([1]; 22 °C, SM (methanol solution)): 37.47 Week; concentration as compared to the initial value [1, 26]: 101.1 ± 2.7 ^#bcd %; concentration as compared to the initial value [1, 27]: 97.6 ± 3.2 ^bcd %; concentration as compared to the initial value [1, 28]: 97.9 ± 2.9 ^bcd %; concentration as compared to the initial value [1, 29]: 95.8 ± 0.1 ^#cd %; k ([1]; −15 °C, SM (methanol solution)): 1.60 × 10^−3 Week^−1; t1/2 ([1]; −15 °C, SM (methanol solution)): 433.22 Week; IC50 [2]: > 100 µM; IC50 [3]: > 100 µM; IC50 [4]: > 100 µM; IC50 [5]: > 100 µM; IC50 (U87 (glioblastoma)): > 100 µM

Structure (SMILES)	concentration as compared to the initial value [1, 6]	concentration as compared to the initial value [1, 7]	concentration as compared to the initial value [1, 8]	concentration as compared to the initial value [1, 9]	concentration as compared to the initial value [1, 10]	concentration as compared to the initial value [1, 11]	concentration as compared to the initial value [1, 12]	concentration as compared to the initial value [1, 13]	concentration as compared to the initial value [1, 14]	concentration as compared to the initial value [1, 15]	concentration as compared to the initial value [1, 16]	concentration as compared to the initial value [1, 17]	concentration as compared to the initial value [1, 18]	concentration as compared to the initial value [1, 19]	concentration as compared to the initial value [1, 20]	concentration as compared to the initial value [1, 21]	concentration as compared to the initial value [1, 22]	concentration as compared to the initial value [1, 23]	concentration as compared to the initial value [1, 25]	concentration as compared to the initial value [1, 24]	other results
O=C1C[C@H](O)[C@@H](O)Cc2ccc(O)c(c2)-c2cc(ccc2O)C[C@H]1O [Compound 1, carpinontriol A]	104.6 ± 1.0 ^#bcg %	110.1 ± 6.2 ^bc %	91.4 ± 0.2 ^#def %	90.8 ± 2.3 ^#def %	110.9 ± 3.6 ^#bc %	114.0 ± 2.2 ^#b %	61.7 ± 5.7 ^#a %	63.5 ± 8.7 ^#a %	100.5 ± 0.5 ^ceg %	108.7 ± 1.5 ^#bc %	93.5 ± 0.4 ^#ef %	94.0 ± 0.8 ^#efg %	92.1 ± 1.3 ^#def %	84.1 ± 1.1 ^#dfi %	87.2 ± 0.4 ^#dfi %	67.1 ± 7.5 ^#aj %	81.5 ± 3.9 ^#di %	77.7 ± 2.9 ^#ij %	32.3 ± 6.3 ^#h %	23.0 ± 0.5 ^#h %	k ([1]; 5 °C, SA (aqueous solution)): 4.47 × 10^−3 Week^−1; t1/2 ([1]; 5 °C, SA (aqueous solution)): 147.48 Week; k ([1]; 5 °C, SM (methanol solution)): 1.40 × 10^−2 Week^−1; k ([1]; 22 °C, SA (aqueous solution)): 5.97 × 10^−2 Week^−1; t1/2 ([1]; 22 °C, SA (aqueous solution)): 11.61 Week; k ([1]; 22 °C, SM (methanol solution)): 4.53 × 10^−2 Week^−1; t1/2 ([1]; 22 °C, SM (methanol solution)): 15.30 Week; concentration as compared to the initial value [1, 26]: 91.3 ± 4.2 ^#def %; concentration as compared to the initial value [1, 27]: 88.3 ± 3.4 ^#dfi %; concentration as compared to the initial value [1, 28]: 93.7 ± 0.3 ^#efg %; concentration as compared to the initial value [1, 29]: 88.9 ± 3.1 ^#dfi %; k ([1]; −15 °C, SA (aqueous solution)): 1.70 × 10^−3 Week^−1; t1/2 ([1]; −15 °C, SA (aqueous solution)): 407.73 Week; k ([1]; −15 °C, SM (methanol solution)): 3.60 × 10^−3 Week^−1; t1/2 ([1]; −15 °C, SM (methanol solution)): 192.54 Week; IC50 [2]: 14.9 ± 2.3 µM; IC50 [3]: > 100 µM; IC50 [4]: > 100 µM; IC50 [5]: > 100 µM; IC50 (U87 (glioblastoma)): > 100 µM

Source: paper PMC10488193, “Evaluation of the Chemical Stability, Membrane Permeability and Antiproliferative Activity of Cyclic Diarylheptanoids from European Hornbeam (Carpinus betulus L.)” (International Journal of Molecular Sciences, 2023)
